Experimental data published in patent US20240092741A1, “COMPOSITION FOR PREVENTION OR TREATMENT OF NEUROFIBROMATOSIS TYPE 2 SYNDROME” (PRG S&TECH INC., priority 2021, published 2024).

Legend:
[1] = test system: HEI-193 cells; assay: Microarray gene expression profile of HEI-193 cells; assay type: cell-based, human; details: PRG-N-01-treated HEI-193 cells vs control
Protocol: Total RNA (500 ng) was extracted using an RNAeasy kit (Qiagen). RNA labeling, hybridization on Human Gene 1.0 ST array (Affymetrix), and data analysis were performed using DNA Link (Seoul, Korea). Genes showing at least a 2-fold difference in each cell line were selected for further analysis.

[2] = test system: mouse schwannoma cells; assay: Tumorsphere formation assay, mouse schwannoma cells; assay type: cell-based; details: 10 μM
Protocol: For tumorsphere formation assay, Hei-193 or mouse schwannoma cells (3×10^6 cells/plate) were cultured in DMEM/F12 medium (supplemented with 2% B27 and 40 ng/ml bFGF) and added with the indicated chemicals on non-coated plates for indicated days.

[3] = test system: HEI-193 cells; assay: Cell-cycle analysis by FACS in HEI-193 cells; assay type: cell-based, human; details: 10 μM, 4 days (FIGS. 12A, 13A)
Protocol: […] After 4 days, the cells were fixed with 70% ethanol and labeled with propidium iodine. These samples were analyzed by FACS for cell-cycle analysis. After 7 days of treatment with DMSO (control group), PRG-N-01, or TEW7197 at the indicated concentration, the cells were fixed with 4% paraformaldehyde and then stained with indicated antibody. A minimum of 10,000 cells were analyzed using an Attune NxT Flow cytometer (Thermo Fisher Scientific, Inc., Rockford, IL, USA).

[4] = test system: mouse schwannoma cells; assay: Allograft tumor growth assay; assay type: in vivo
Protocol: For allograft, 1×10^7 mouse schwannoma cells were seeded subcutaneously on FVB/NJ mice (8 weeks old). Tumor-bearing mice were administered with the carrier (n=8) or PRG-N-01 (20 mg/kg; n=8) by intraperitoneal injection for 5 weeks (3 times per week). Every week, the tumor volume and body weight were measured. After termination of the experiment in each group, mice were dissected, and tumor tissues were isolated.
To examine the in vivo effect of PRG-N-01, NF2 model mouse-derived schwannoma cells were allografted to 8-week-old mice, and PRG-N-01 was administered by intraperitoneal injection (20 mg/kg, 3 times a week).

[5] = test system: HEI-193 cells; assay: RT-PCR gene expression in HEI-193 cells; assay type: cell-based, human
Protocol: For RT-PCR, total cellular RNA was extracted using an RNA extraction kit (Qiagen). Gene expression analysis was performed using cDNA synthesized from total RNA with MMLV RT (Invitrogen, Carlsbad, USA) and random hexamer. PCR from genomic DNA was performed using DiaStar Taq DNA polymerase (SolGent, Daejeon, Korea), and gene expression analysis was performed using the following specific primers: […]

[6] = target: T1, interaction between TβR1 and RKIP (Homo sapiens, UniProt P30086+P36897); assay: GST-pull down assay of TβR1-RKIP interaction; assay type: binding
T1 construct: host or cells: HEK293 (TβR1 lysate)
Protocol: For protein-protein interaction analysis, glutathione S-transferase (GST)-pull down assay was performed. For GST-pull down, agarose-bead-conjugated GST-RKIP recombinant protein was reacted with FLAG-tagged TβR1-transfected HEK 293 cell lysates in PBS buffer at 4° C. for 1 hour. Immunoprecipitation (IP) assay was performed by reacting with FLAG-tagged TβR1- or HA-tagged RKIP-transfected HEI-193 cell lysates in PBS buffer. Whole lysates were reacted with appropriate primary antibodies at 4° C. for 2 hours and with agarose-bead-conjugated protein A/G (Invitrogen, Carlsbad, CA, USA) for 2 hours. After centrifugation, the precipitates were washed twice with RIPA buffer and subjected to SDS-PAGE and western blotting analysis.

[7] = test system: SOX2; assay: SOX2 localization by IF and cell fractionation in HEI-193 cells; assay type: cell-based, human; details: 2 μM, 24 h, IF and cell fractionation (FIGS. 15C, 15D)
Protocol: Cells were seeded on cover glass, washed with PBS, fixed with 4% paraformaldehyde (PFA) for 30 minutes at room temperature, and then permeabilized with 0.2% Triton X-100 at room temperature for 5 minutes. After treatment with blocking buffer [3% goat serum diluted in PBS] for 1 hour, cells were reacted with the specified antibody in the blocking buffer overnight at 4° C. Finally, the cells were reacted with secondary antibodies conjugated with FITC or rhodamine at 4° C. for 7 hours. The nuclei were stained with DAPI at room temperature for 10 minutes. After the cells were washed 3 times with PBS, the cover glass was mounted with a mounting solution (H-5501, Vector Laboratories, Cambridgeshire, UK) and immunofluorescence signals were detected using a fluorescence microscopy (Zeiss, Jena, Germany).

[8] = test system: normal fibroblasts; assay: MTT cell viability assay in normal fibroblasts; assay type: cell-based, human; details: indicated concentrations, 7 days (FIG. 5A)
Protocol: To measure cell viability, MTT (3-(4,5-dimethylthiazol-2-yl)-2,5-diphenyltetrazolium bromide) assay was used. In other words, the cells were seeded in 96-well plates and treated with the indicated chemicals for a predetermined time. After removing the medium, 200 μl of MTT solution (0.5 mg/ml) dissolved in PBS was added to each well. Plates were then cultured at 37° C. for 4 hours, the MTT solution was removed, the precipitated substances were dissolved using a solution (DMSO:ethanol=1:1), and an amount of formazan dye produced was quantified by measuring the absorbance at 560 nm using an ELISA microplate reader (Thermo Fisher Scientific, MA, USA).

[9] = test system: TGF-β signaling; assay: 3TP-luciferase assay in HEI-193 cells; assay type: cell-based, human; details: high concentrations, TGF-β1 2 ng/ml (FIG. 8D)
Protocol: To estimate the transcriptional activity of TGF-β signaling, 3TP-Luc vectors were transfected into cells for 24 hours, and the cells were treated with the indicated chemicals. After washing with wash buffer (Promega, Wisconsin, USA), the cells were lysed using lysis buffer (Promega, Wisconsin, USA). Luciferase activity was measured using a luminometer (MicroDigital, Gyeonggi-do, Korea).

[10] = isolated allograft tumors, RT-PCR (FIG. 17E)

T1 sequence (P30086 whole entry): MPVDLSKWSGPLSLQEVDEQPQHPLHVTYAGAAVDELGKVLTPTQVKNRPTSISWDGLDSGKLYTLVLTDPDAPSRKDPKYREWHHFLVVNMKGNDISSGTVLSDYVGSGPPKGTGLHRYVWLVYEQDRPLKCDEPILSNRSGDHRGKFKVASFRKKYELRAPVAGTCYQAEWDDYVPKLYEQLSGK
T1 sequence (P36897 34-503): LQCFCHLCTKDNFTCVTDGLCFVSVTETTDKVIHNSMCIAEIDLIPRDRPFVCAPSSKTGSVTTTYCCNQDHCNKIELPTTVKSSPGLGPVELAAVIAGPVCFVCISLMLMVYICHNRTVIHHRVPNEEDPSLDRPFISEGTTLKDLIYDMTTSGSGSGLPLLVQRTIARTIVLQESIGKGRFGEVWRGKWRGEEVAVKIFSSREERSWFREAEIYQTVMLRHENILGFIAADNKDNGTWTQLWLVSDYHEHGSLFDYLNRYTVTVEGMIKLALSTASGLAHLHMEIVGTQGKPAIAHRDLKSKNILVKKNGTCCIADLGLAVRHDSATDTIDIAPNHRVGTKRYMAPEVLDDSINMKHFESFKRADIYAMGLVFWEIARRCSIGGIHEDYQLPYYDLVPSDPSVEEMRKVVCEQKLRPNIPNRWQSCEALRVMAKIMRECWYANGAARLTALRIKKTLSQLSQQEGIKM

CCN(CC)CCOc1ccc(-c2nnn(Cc3ccc(OC)cc3)c2N)cc1 [PRG-N-01, 4-(4-(2-(diethylamino)ethoxy)phenyl)-1-(4-methoxybenzyl)-1H-1,2,3-triazol-5-amino]
Log2Ratio, gene FABP3 (fatty acid binding protein 3, muscle and heart) [1]: −2.272 | Log2Ratio, gene HIST1H1B [1]: −2.475 | Log2Ratio, gene MEST [1]: −1.95 | Log2Ratio, gene MMP1 [1]: 2.163 | Log2Ratio, gene MSMO1 [1]: −1.988 | Log2Ratio, gene OLFML3 [1]: −2.099 | Log2Ratio, gene PBK [1]: −1.976 | Log2Ratio, gene PLK1 (polo-like kinase 1) [1]: −2.041 | Log2Ratio, gene PRR11 [1]: −2.207 | Log2Ratio, gene TOP2A [1]: −1.931 | cell-cycle-related genes (PLK1, CENPE) expression [1]: downregulated | lipid metabolism-related genes (PNILPRP3, NR4A2, ABCA1) expression [1]: strikingly upregulated | tenascin C gene expression (readout of canonical TGF-β signaling) [1]: considerably upregulated | tumorsphere size and number ([2]; 10th day): reduced the tumorsphere size as well as the number of tumorsphere | tumorsphere formation ([2]; DMEM/F12 medium): obviously inhibited tumorsphere formation | cell cycle [3]: cell cycle arrest was induced at the G1 phase | SOX2 mRNA in tumor tissues [4, 10]: reduction | schwann cell markers and SOX10 mRNA in tumor tissues [4, 10]: induction | RKIP, schwann cell markers (PLP, MBP, MPZ) and SOX10 at the protein level in tumor tissues ([4]; isolated allograft tumors, immunoblotting (FIG. 17D)): induction | tumor growth ([4]; mouse schwannoma allograft in FVB/NJ mice, 20 mg/kg i.p., 3 times a week, 5 weeks): inhibited tumor growth | tumor size and weight ([4]; mouse schwannoma allograft, 20 mg/kg i.p., 3 times a week, 5 weeks (FIGS. 17B, 17C)): obviously suppressed | expression of cell cycle-related genes (CDK1, CDK4, CCNB1, PLK4) ([5]; RT-PCR (FIG. 12D)): decreased | expression of schwann cell markers (PLP, MBP, GFAP MPZ, PMP22, SOX10) ([5]; RT-PCR (FIGS. 12D, 13C)): increased | interaction between TβR1 and RKIP at low concentrations ([6]; GST pull-down, low concentrations (FIG. 6B)): showed an inhibitory effect even at low concentrations | interaction between TβR1 and RKIP ([6]; GST-RKIP beads with TβR1-transfected HEK293 lysates, 5 and 10 μM, 2 h (FIG. 5B)): inhibited the interaction between TβR1 and RKIP in a dose-dependent manner | localization of nuclear SOX2 [7]: moved to the cytosol | toxicity in normal fibroblasts (MTT) [8]: without causing toxicity | TGF-β signaling (3TP-luciferase activity) [9]: did not inhibit TGF-β signaling even at high concentrations
